Measurements taken from patent US20100158863A1, “TRIAZOLOANILINOPYRIMIDINE DERIVATIVES FOR USE AS ANTIVIRAL AGENTS” (ARROW THERAPEUTICS LIMITED, priority 2006, published 2010).
Read-outs that look alike come from different tables or passages of the source.

Tests used:
[1] = tested on: HCV replicon 1b (Huh-9B); assay: HCV replicon activity, luciferase detection on the replicon plate; type: cell-based, HCV genotype 1b; settings: Huh-9B replicon cells, luciferase signal
Description: 1b replicon (Huh.7) described in Science 285, 110-113. • Huh-9B: liver cell line with persistent bicistronic HCV genotype 1b coding sequence: [I3891ucubineo—3-3′_ET] includes firefly luciferase-ubiquitin-neomycin phosphotransferase fusion protein and EMCV-IRES driven non-structural HCV (NS3 to NS5B) coding sequence including cell culture adaptive mutations E1202G, […] and K1846T (Lohmann et al, 2001).
This assay is set up using all 96 wells of flat-bottomed 96-well plates. Plates are set up one day before addition of compounds. The assay then runs for 4 days with ELISA development taking place on the 5th day.
Exponentially growing Huh-9B monolayers are washed with sterile PBS to remove serum and treated with trypsin to detach cells from the flask.
(§1) Cells are suspended in growth media and counted using a haemocytometer. Duplicate 96 well plates are seeded with Huh-9B at a density of 10^4 cells/well in a total volume of 100 μl/well of growth medium without antibiotics as depicted below.
(§2) One of the plates is an opaque white 96-well plate used for IC50 determination based on the luciferase signal (referred as replicon plate), the other one is a clear 96-well plate used for a parallel determination of drug toxicity by methylene blue staining (referred as tox plate). Wells G12 and H12 of the tox plate are left without cells to use as buffer alone background reading.
Plates are then incubated at 37° C. in a 5% CO2 environment for 24 h to obtain a 90% confluent cell monolayer.
(§3) Doubling dilutions of each compound are generated in a separate 96 high volume capacity round bottom plate to twice their initial concentration in the assay using growth medium without antibiotics.
Five compounds (C1 to C5) are tested on each assay plate as illustrated below plus a control compound that is also included in each plate.
(§4) Compounds are tested across an 8 point doubling dilution series. The initial dilution of each compound to be tested is 25 μM and 12.5 μM for the control compound.
DMSO only wells (A1 and A2) at 1% provide the signal corresponding to maximal (100%) luciferase detection. […] The signal from the DMSO wells at 1% (maximal signal) constitutes the assay window.
(§5) For each compound dilution on the 2×96-well dilution plate 100 μl are transferred using a multichannel pipette onto the replicon and tox plates mirror wells which contain […] of medium to obtain the desired final concentration.
Media is tapped out from wells into Virkon and plates are washed once in warm PBS and tapped dry gently.
For each well 20 μl of lysis buffer is added by multichannel pipette. Lysates are stable at this point for several hours.
Luciferase assay buffer is placed it in the luminometer (Lmax, Molecular Devices).
The M injector is primed with 4×300 μl of luciferase assay buffer. The plate to be analyzed is placed in the luminometer and […] of luciferase assay buffer injected automatically into one well followed by 4 seconds integration read out.
After one second delay a second well is injected with 100 μl of luciferase assay buffer followed by 4 seconds integration read out and so forth until all 96 wells are analyzed.
Once the reading is finished the luminometer injection system is washed with deionised water.
The data is acquired using the SOFTmax for Lmax Pro software package.
(§6) SOFTmax data files are exported as Excel or text files. A standard four parameters non-linear regression analysis of the data obtained from each compound is then used to calculate the IC50.
(§7) In the above analysis all replicate wells are meaned. The % of control is then calculated for each concentration point as a percentage of the DMSO control wells.

[2] = tested on: HCV replicon 1b; assay: ELISA, combined effect of HCV replication inhibitor with interferon αA; type: cell-based; settings: for IC50: Hepatitis C virus
Description: ELISA Protocol as in Example 38
The fractional inhibitory concentratin (FIC) can be used to identify a synergistic interaction.

[3] = tested on: Huh-9B; assay: Toxicity determination on the tox plate by methylene blue staining; type: cell-based; settings: Huh-9B cells, parallel tox plate
Description: as §1, §2, §3, §4, §5
Media is tapped out from wells into Virkon and plates tapped dry gently. To each well 100 μl of 0.5% solution of methylene blue in 50% methanol is added to all wells including blanks (G12 and H12). Plates are left at RT for a minimum of 1 h. Plates are then rinsed gently by immersing in a plastic box with water, tapped dry gently and left open until they are fully dry. Dye is solubilized adding 100 μl of 1% lauroylsarcosine to each well and shaking for 1 h at 37° C. Plates are read on the SpectraMax spectrophotometer at 620 nm wavelength using the SOFTmax Pro software package.
as §6, §7

Row | Compound | IC50 ([1]; Hepatitis C virus) [µM] | IC50 ([2]; compound alone, read-out: ELISA IC50 against HCV replicon 1b) [µM] | IC50 ([2]; read-out: IC50 of compound in combination) [µM] | fractional inhibitory concentration (FIC) ([2]; combination with interferon αA, FIC <0.5 = synergy) | Replicon TD50 [3] | IC50 [1] [µM]
1 | COc1ccc(-c2ccc3ncnc(Nc4ccc(-n5cncn5)cc4)c3c2)cc1OC [Example 10, [6-(3,4-Dimethoxy-phenyl)-quinazolin-4-yl]-(4-[1,2,4]triazol-1-yl-phenyl)-amine] | < 5 | 0.2 | ≤ 0.067 | 0.336 | * (* <25 μM) | –
2 | COc1ccc(-c2ccc3ncnc(Nc4ccc(-n5nc(C(=O)O)nc5C)cc4)c3c2)cc1OC [Example 29, 1-(4-{6-[3,4-Dimethoxy-phenyl]-quinazolin-4-ylamino}-phenyl)-5-methyl-1H-[1,2,4]triazole-3-carboxylic acid] | 5 to 20 | – | – | – | ** (** >25 μM) | –
3 | COc1ccc(-c2ccc3ncnc(Nc4ccc(-n5nc(C(=O)N(C)C)nc5C)cc4)c3c2)cc1OC [Example 30, 1-{-4-[6-(3,4-Dimethoxy-phenyl)-quinazolin-4-ylamino]-phenyl}-5-methyl-1H-[1,2,4]triazole-3-carboxylic acid dimethylamide] | < 5 | – | – | – | * (* <25 μM) | –
4 | CNC(=O)c1nc(C)n(-c2ccc(Nc3ncnc4ccc(-c5ccc(OCCOC)c(F)c5)cc34)cc2)n1 [Example 31, 1-(4-{6-[3-Fluoro-4-(2-methoxy-ethoxy)-phenyl]-quinazolin-4-ylamino}-phenyl)-5-methyl-1H-[1,2,4]triazole-3-carboxylic acid methylamide] | < 5 | – | – | – | ** (** >25 μM) | –
5 | COCCOc1ccc(-c2ccc3ncnc(Nc4ccc(-n5nc(C(=O)N(C)C)nc5C)cc4)c3c2)cc1F [Example 32, 1-(4-{6-[3-Fluoro-4-(2-methoxy-ethoxy)-phenyl]-quinazolin-4-ylamino}-phenyl)-5-methyl-1H-[1,2,4]triazole-3-carboxylic acid dimethylamide] | < 5 | – | – | – | * (* <25 μM) | –
6 | Cc1cc(-n2cncn2)ccc1Nc1ncnc2ccc(Br)cc12 [Example 33] | – | – | – | – | ** (** >25 μM) | < 5
7 | COCCOc1ccc(-c2ccc3ncnc(Nc4ccc(-n5nc(C(=O)N6CCN(C)CC6)nc5C)cc4)c3c2)cc1F [Example 34, [1-(4-{6-[3-Fluoro-4-(2-methoxy-ethoxy)-phenyl]-quinazolin-4-ylamino}-phenyl)-5-methyl-1H-[1,2,4]triazole-3-yl]-(4-methyl-piperazin-1-yl)methanone] | < 5 | – | – | – | ** (** >25 μM) | –
